Reference: ChEMBL document CHEMBL1201862, “PubChem BioAssay data set” (2004)
Calls of active or inactive are those of the source.

What was measured:
[1] = biological target: T1, Zinc finger protein mex-5 (Caenorhabditis elegans, UniProt Q9XUB2); test: MEX-5/TCR-2 RNA interaction inhibitors, dose response, biochemical, C. elegans, fluorescence polarization (AID 1960)
T1 sequence (Q9XUB2 whole entry): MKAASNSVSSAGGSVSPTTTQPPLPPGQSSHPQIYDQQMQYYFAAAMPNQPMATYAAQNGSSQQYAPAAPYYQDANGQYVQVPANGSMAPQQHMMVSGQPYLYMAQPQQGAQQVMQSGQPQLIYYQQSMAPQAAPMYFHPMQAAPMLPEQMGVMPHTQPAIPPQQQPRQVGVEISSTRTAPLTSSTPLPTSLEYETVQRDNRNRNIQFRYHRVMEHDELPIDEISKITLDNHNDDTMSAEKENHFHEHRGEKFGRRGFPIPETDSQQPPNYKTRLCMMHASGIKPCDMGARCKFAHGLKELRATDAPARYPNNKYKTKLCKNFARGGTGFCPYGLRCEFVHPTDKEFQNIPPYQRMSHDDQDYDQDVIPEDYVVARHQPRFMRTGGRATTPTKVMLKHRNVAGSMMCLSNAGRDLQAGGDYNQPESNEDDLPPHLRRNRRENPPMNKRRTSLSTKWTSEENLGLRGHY

Streptococcus = test: Group A Streptococcus viability loss, dose response, counter-screen for streptokinase expression inhibitor project, luminescence, BacTiterGlo (AID 1915); type: functional, organism-based;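 further: potency for reduction of bacterial viability or growth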
[2] = biological target: T2, Endoribonuclease toxin MazF (Escherichia coli K-12, UniProt P0AE70); test: fluorescent RNA oligo signal without MazF, dose response, counter-screen for MazEF activator project, biochemical, fluorescence, single-stranded RNase substrate (AID 588502); type: functional
T2 sequence (P0AE70 whole entry): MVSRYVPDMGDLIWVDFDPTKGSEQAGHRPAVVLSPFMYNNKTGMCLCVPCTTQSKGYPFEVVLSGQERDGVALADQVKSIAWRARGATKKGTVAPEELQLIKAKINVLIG

Beta-galactosidase = Beta-galactosidase (Escherichia coli, UniProt Q8VNN2); test: Dose response counterscreen for EBI2 assay utilizing the enzyme, b-galactosidase.; type: functional
Sequence of Beta-galactosidase (Q8VNN2 whole entry, the tested form may be a part): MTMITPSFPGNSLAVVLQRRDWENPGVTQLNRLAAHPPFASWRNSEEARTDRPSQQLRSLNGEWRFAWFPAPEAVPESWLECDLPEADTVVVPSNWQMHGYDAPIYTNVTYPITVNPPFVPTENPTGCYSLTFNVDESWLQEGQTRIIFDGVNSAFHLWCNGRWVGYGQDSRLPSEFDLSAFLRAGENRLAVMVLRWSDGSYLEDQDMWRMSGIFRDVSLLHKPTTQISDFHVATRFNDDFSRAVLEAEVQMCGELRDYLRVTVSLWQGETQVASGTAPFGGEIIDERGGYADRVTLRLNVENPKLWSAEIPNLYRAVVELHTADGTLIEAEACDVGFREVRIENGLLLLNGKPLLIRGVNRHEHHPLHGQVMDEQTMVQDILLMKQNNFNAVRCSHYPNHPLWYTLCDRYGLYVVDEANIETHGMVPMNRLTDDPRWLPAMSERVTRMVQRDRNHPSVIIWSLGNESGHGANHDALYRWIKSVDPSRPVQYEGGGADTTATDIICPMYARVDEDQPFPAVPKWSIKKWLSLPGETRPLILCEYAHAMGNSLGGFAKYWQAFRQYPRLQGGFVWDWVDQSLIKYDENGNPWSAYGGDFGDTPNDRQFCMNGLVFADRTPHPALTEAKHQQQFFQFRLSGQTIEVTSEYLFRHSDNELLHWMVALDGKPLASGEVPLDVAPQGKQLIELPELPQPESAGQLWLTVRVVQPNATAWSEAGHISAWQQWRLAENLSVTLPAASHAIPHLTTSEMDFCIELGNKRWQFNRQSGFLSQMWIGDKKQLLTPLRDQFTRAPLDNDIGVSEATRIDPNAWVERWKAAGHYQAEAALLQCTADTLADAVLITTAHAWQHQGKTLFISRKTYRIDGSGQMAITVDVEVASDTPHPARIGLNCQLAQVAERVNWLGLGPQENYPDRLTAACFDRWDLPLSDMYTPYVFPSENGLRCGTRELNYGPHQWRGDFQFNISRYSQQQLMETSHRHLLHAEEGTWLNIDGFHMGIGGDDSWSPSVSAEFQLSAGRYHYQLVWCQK

[3] = biological target: T3, RNA-binding protein pos-1 (Caenorhabditis elegans, UniProt G5EF15); test: inhibitors of POS-1/mex-3 RNA binding, dose response, biochemical, fluorescence polarization (AID 1964);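 further: purified POS-1 fused to maltose binding protein made in E. coli; potency of compounds blocking POS-1 binding to fluorescent RNA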
T3 sequence (G5EF15 whole entry): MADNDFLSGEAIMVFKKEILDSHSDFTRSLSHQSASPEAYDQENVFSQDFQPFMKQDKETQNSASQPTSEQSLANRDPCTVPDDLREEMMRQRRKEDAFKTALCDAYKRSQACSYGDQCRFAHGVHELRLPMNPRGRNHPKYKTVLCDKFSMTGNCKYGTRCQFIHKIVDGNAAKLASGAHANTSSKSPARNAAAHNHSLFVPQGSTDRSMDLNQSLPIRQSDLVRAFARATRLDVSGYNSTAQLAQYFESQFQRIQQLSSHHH

Streptokinase A = biological target: T4, Streptokinase A (Streptococcus pyogenes serotype M1, UniProt P10520); test: S. pyogenes streptokinase expression inhibitors, potency, dose response, plasminogen activation absorbance, OD405 (AID 1914); type: functional, Streptococcus pyogenes M1 GAS;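 further: secreted streptokinase activity via plasminogen activation per viability signal from cell pellet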
T4 sequence (P10520 whole entry): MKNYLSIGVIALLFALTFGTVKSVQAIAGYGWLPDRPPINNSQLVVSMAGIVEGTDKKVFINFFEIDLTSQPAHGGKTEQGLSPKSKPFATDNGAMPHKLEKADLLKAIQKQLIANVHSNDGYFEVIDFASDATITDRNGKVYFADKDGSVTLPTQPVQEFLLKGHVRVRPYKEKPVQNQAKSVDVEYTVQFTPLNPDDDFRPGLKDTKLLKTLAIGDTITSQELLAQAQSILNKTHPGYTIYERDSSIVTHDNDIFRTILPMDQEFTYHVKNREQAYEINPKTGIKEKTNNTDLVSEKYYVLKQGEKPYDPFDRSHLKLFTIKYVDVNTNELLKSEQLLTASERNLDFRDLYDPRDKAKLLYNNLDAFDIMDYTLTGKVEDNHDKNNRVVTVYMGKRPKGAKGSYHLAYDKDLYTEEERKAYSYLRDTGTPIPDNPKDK

[4] = biological target: T2, Endoribonuclease toxin MazF; test: MazF toxin RNase activators, dose response, biochemical, fluorescence, single-stranded RNA substrate, uHTS hits (AID 588481); type: functional
[5] = biological target: T5, Mannose-6-phosphate isomerase (Homo sapiens, UniProt P34949); test: inhibitors of human PMI, primary screen, biochemical, fluorescence intensity, coupled assay (AID 1209)
T5 sequence (P34949 whole entry): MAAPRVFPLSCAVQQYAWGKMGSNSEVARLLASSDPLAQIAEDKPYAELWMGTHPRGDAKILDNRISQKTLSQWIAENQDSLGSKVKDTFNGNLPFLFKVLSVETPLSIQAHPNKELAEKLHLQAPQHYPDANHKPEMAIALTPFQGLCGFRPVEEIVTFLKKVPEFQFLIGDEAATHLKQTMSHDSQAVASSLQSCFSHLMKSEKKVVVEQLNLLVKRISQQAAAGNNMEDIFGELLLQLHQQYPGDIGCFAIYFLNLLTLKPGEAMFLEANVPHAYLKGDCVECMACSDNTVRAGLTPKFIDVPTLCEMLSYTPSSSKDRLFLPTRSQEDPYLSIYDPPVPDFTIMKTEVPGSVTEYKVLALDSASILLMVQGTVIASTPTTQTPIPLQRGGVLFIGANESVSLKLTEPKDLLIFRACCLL

[6] = inhibitors of intracellular T. cruzi replication, confirmation, NIH3T3 host cells, beta-gal luminescence (AID 2044); type: functional, cell-based;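 further: intracellular parasites grown in NIH/3T3 mouse fibroblasts as host cells; luminescent beta-galactosidase reporter signal from transgenic T. cruzi replicating inside host cells; inhibitors lower the luminescence signal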
A-375 = test: MITF: Counter assay: A375 proliferation Measured in Cell-Based System Using Plate Reader - 2084-03_Inhibitor_Dose_DryPowder_Activity. [Related pubchem assays (depositor defined):AID488944]; type: functional; conditions: Homo sapiens
[7] = biological target: Heat shock protein HSP 90-alpha (Homo sapiens, UniProt P07900); test: Luminescence-based dose response biochemical high throughput screening assay for inhibitors of the Heat Shock Protein 90 (HSP90). [Related pubchem assays: 1831 (Summary AID.), 1846 (Confirmation screen.), 1789 (Primary screen.)]
[8] = cytotoxicity toward NIH3T3 fibroblasts, dose response, counter-screen, cell-based, ATP luminescence, mouse fibroblasts (AID 2010); type: functional;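 further: cells exposed to compound for about 90 hours before reading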
[9] = THP-1 cell cytotoxicity, dose response, cytotoxicity control for Vif-APOBEC3G degradation inhibitor project, THP-1 cells (AID 1117359); type: functional; conditions: Human immunodeficiency virus 1, THP-1
[10] = HepG2 cell cytotoxicity, dose response, cytotoxicity control, ATP luminescence, cherry-pick, activator set 2 (AID 1053143); type: functional, cell-based
H4 = test: Luminescence Cell-Based Dose Response HTS to Identify Activators of 5'UTR Stem-Loop Driven Prion Protein mRNA Translation in H4 Neuroglioblastoma Cells. [Related pubchem assays: 1829 (Project Summary), 1814 (Primary HTS)]; type: functional; conditions: Homo sapiens
[11] = Luminescence Cell-Based Dose Response HTS to Identify Activators of Luciferase Translation or Activity in H4 […] Cells. [Related pubchem assays: 1829 (Project Summary), 1814 (Primary HTS)]; type: functional
cells [12] = type: functional, cell-based
cells [13] = type: functional, cell-based; remark: listed apart in the source
Estrogen receptor = biological target: T6, Estrogen receptor (Homo sapiens, UniProt P03372);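 further: potency for inhibiting coactivator peptide recruitment to the receptor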
T6 sequence (P03372 whole entry): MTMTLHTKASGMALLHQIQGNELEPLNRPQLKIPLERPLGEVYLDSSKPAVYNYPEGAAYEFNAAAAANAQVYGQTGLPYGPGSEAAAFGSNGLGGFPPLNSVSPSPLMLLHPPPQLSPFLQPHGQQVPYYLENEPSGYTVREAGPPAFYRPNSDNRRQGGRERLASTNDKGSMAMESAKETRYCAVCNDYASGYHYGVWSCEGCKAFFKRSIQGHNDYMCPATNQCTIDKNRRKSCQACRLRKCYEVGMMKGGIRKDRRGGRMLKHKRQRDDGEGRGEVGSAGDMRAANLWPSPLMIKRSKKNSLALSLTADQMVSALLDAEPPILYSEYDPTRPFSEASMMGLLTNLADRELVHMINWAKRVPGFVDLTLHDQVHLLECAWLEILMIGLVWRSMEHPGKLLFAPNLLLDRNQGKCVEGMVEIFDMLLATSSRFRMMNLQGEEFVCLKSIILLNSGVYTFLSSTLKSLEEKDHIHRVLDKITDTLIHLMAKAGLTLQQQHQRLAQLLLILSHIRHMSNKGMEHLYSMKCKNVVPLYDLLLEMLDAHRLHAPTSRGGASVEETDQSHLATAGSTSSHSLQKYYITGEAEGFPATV

Estrogen receptor beta [14] = biological target: T7, Estrogen receptor beta (Homo sapiens, UniProt Q92731); test: ERβ–SRC-3 coactivator interaction inhibitors, confirmation, orthogonal assay, biochemical, ELISA, streptavidin-HRP readout (AID 1060)
T7 sequence (Q92731 whole entry): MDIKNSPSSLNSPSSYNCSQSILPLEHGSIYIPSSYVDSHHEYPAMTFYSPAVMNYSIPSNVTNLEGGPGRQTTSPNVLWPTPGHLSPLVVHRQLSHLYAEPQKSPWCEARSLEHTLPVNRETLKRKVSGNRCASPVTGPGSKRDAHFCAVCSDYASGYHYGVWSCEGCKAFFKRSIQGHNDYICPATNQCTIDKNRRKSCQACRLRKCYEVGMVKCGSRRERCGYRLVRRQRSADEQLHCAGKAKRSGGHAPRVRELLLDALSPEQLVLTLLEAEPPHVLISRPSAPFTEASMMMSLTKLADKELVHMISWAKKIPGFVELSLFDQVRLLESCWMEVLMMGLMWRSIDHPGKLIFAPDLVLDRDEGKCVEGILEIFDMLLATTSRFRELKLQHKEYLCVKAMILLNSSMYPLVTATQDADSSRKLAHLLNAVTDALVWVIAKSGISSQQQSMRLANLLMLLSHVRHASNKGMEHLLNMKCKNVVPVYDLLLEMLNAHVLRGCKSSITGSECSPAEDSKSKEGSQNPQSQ

Estrogen receptor beta [15] = biological target: T7, Estrogen receptor beta
[16] = HEK293 Cytotoxicity Assay Measured in Cell-Based System Using Plate Reader - 7071-01_Inhibitor_Dose_CherryPick_Activity_Set2.; type: functional
HEK293 = test: HEK293T cell cytotoxicity, dose response, cytotoxicity control, ATP luminescence, cherry-pick samples (AID 687005); type: functional, cell-based; conditions: Homo sapiens;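 further: cells exposed to compound for 48 hours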

In the case of COC(=O)/C=C1\C(=O)N(c2nc3ccccc3s2)C(=S)N1c1ccc(F)cc1, the EC50 [1] is reported as > 300 µM (not active), the EC50 (Streptococcus) is reported as > 150 µM (not active) and the EC50 [2] is reported as > 99 µM (inactive). For the same molecule, the IC50 (Beta-galactosidase) was > 80 µM (inactive), the EC50 [3] was > 300 µM (not active) and the EC50 (Streptokinase A) was > 150 µM (not active). For the same molecule, the EC50 [4] was > 99 µM (inactive).

With COc1ccccc1N1C(=O)CC(Sc2n[nH]c(-c3cccc(C)c3)n2)C1=O (stereo not drawn) the IC50 [5] was 48.1 µM (active).

In the case of Cc1cc(C)c2nc(N3CCC(C(=O)NCCCN4CC(C)CC(C)C4)CC3)sc2c1 (stereo not drawn), the EC50 [6] is reported as 1.22 µM (active), the AC50 (A-375) is reported as 21.5 µM (active) and the IC50 [7] is reported as 8.62 µM (active). For the same molecule, the EC50 [8] was > 60 µM (not active).

With Cc1ccc2c(c1)CCCN2C(=O)c1cc(C)c(C)s1 the CC50 [9] was > 40 µM (active).

In the case of CCOC(=O)C1CCN(c2ccc(-c3cccs3)nn2)CC1, the AC50 [10] is reported as 26 µM (active), the EC50 (H4) is reported as 96.1 µM (active) and the EC50 [11] is reported as 0.391 µM (active).

With Oc1ccnc(NCCc2ccccc2)n1 the EC50 (cells [12]) was > 29.9 µM (inactive) and the IC50 (cells [13]) was > 29.9 µM (inactive).

For CCOc1ccc(NC2=NC(=O)S/C2=C\c2ccc(OC)cc2)cc1, the IC50 (Estrogen receptor) was 18.8 µM (active), the IC50 (Estrogen receptor beta [14]) was 99.9 µM (not active) and the IC50 (Estrogen receptor beta [15]) was > 50 µM (not active).

For COc1ccccc1CNC(=O)C[C@@H]1CC[C@@H]2[C@H](COc3ccc(NC(C)=O)cc3C(=O)N2C)O1, the AC50 [16] was 37.8 µM (active) and the AC50 (HEK293) was 37.8 µM (active).
